# Reference: the supplement of paper PMC7017272
# ± gives the standard deviation of the averaged measurements.
# Legend:
# Settings in all cases: treatment time: 3 days
# [1] = tested on: UT-SCC-24B; assay: drug sensitivity score (DSS); higher = more sensitive; extreme values may be limits of the assay
# Summary of the method: (§1)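 Viability of HPV-negative HNSCC cell lines was measured by CellTiter-Glo 2.0 luminescence. Cells were seeded at 500 cells/well in 384-well plates on plastic, on Matrigel- or Myogel-coated wells (500 µg/mL), or embedded in Matrigel or Myogel plus rat collagen I, then given compounds at five 10-fold concentrations for 3 days, with signals normalised to vehicle (0.1% DMSO) and cell-killing control wells. Fitting of percent-inhibition dose–response curves in the FIMM pipeline yielded IC50, maximal inhibition and drug sensitivity score.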
# [2] = tested on: UT-SCC-73; assay: as above
# Summary of the method: as §1
# [3] = tested on: UT-SCC-81; assay: as above
# Summary of the method: as §1
# [4] = tested on: UT-SCC-42A; assay: as above
# Summary of the method: as §1
# [5] = tested on: UT-SCC-40; assay: as above
# Summary of the method: as §1
# [6] = tested on: UT-SCC-44; assay: as above
# Summary of the method: as §1
# [7] = tested on: UT-SCC-28; assay: as above
# Summary of the method: as §1
# [8] = tested on: UT-SCC-42B; assay: as above
# Summary of the method: as §1
# [9] = tested on: UT-SCC-8; assay: as above
# Summary of the method: as §1
# [10] = tested on: UT-SCC-14; assay: as above
# Summary of the method: as §1
# [11] = tested on: UT-SCC-106A; assay: as above
# Summary of the method: as §1
# [12] = tested on: UT-SCC-24A; assay: drug sensitivity score (DSS); higher = more sensitive
# Description: (§2)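 HNSCC cell lines (500 cells/well, 384-well) were cultured on plastic, on top of (2D) or embedded (3D) in Matrigel or human leiomyoma matrix Myogel (500 ug/mL; Myogel 3D mixed with rat collagen I). Cells were treated for 3 days with 5 ten-fold concentrations of each drug, and viability was read by CellTiter-Glo. Suffixes _1/_2/_3 on drug names are replicates.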
# [13] = tested on: UT-SCC-73; assay: maximal % inhibition of viability relative to DMSO; higher = stronger effect
# Summary of the method: as §1
# [14] = tested on: UT-SCC-44; assay: as above
# Summary of the method: as §1
# [15] = tested on: UT-SCC-106A; assay: as above
# Summary of the method: as §1
# [16] = tested on: UT-SCC-24A; assay: maximal % inhibition of viability relative to DMSO; higher = stronger effect
# Description: as §2, with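 “CellTiter-Glo. Viability was normalised to DMSO (0% inhibition) and 100 uM benzethonium chloride (100% inhibition) controls and fitted with the FIMM DSRT pipeline to give IC50 (nM), maximal % inhibition and the drug sensitivity score (DSS).” for “CellTiter-Glo.”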
# [17] = culture condition: embedded in Matrigel
# [18] = culture condition: embedded in Myogel + collagen I
# [19] = culture condition: on top of Matrigel
# [20] = culture condition: on top of Myogel
# [21] = culture condition: plastic 2D (no matrix)
smiles,measurement,setting,value
COc1ncc(-c2ccc3nccc(-c4ccnnc4)c3c2)cc1NS(=O)(=O)c1ccc(F)cc1F [Omipalisib],drug sensitivity score,[1]; [17],22.3 ± 0.72 DSS
same,drug sensitivity score,[1]; [18],22.9 ± 1.3 DSS
same,drug sensitivity score,[1]; [19],21.7 ± 0.58 DSS
same,drug sensitivity score,[1]; [20],19.4 ± 0.7 DSS
same,drug sensitivity score,[1]; [21],21.6 ± 0.49 DSS
same,drug sensitivity score,[2]; [17],24.13 ± 0.21 DSS
same,drug sensitivity score,[2]; [18],23.1 ± 3.8 DSS
same,drug sensitivity score,[2]; [19],23.83 ± 0.15 DSS
same,drug sensitivity score,[2]; [20],21.6 ± 0.47 DSS
same,drug sensitivity score,[2]; [21],22.2 ± 0.8 DSS
same,drug sensitivity score,[3]; [17],28.53 ± 0.15 DSS
same,drug sensitivity score,[3]; [18],21.9 ± 1.9 DSS
same,drug sensitivity score,[3]; [19],26.8 ± 0.32 DSS
same,drug sensitivity score,[3]; [20],21 ± 0.1 DSS
same,drug sensitivity score,[3]; [21],22.6 ± 1.5 DSS
same,drug sensitivity score,[4]; [17],20.8 ± 3.1 DSS
same,drug sensitivity score,[4]; [18],18.2 ± 0.85 DSS
same,drug sensitivity score,[4]; [19],21.1 ± 2.2 DSS
same,drug sensitivity score,[4]; [20],18.6 ± 0.96 DSS
same,drug sensitivity score,[4]; [21],21.6 ± 2.3 DSS
same,drug sensitivity score,[5]; [17],27.3 ± 0.47 DSS
same,drug sensitivity score,[5]; [18],21.5 ± 0.32 DSS
same,drug sensitivity score,[5]; [19],26.4 ± 0.84 DSS
same,drug sensitivity score,[5]; [20],19.2 ± 1.1 DSS
same,drug sensitivity score,[5]; [21],20.6 ± 0.46 DSS
same,drug sensitivity score,[6]; [17],15.7 ± 2.2 DSS
same,drug sensitivity score,[6]; [18],13.9 ± 1.6 DSS
same,drug sensitivity score,[6]; [19],14 ± 1.9 DSS
same,drug sensitivity score,[6]; [20],14.2 ± 2 DSS
same,drug sensitivity score,[6]; [21],12.4 ± 0.21 DSS
same,drug sensitivity score,[7]; [17],18.7 ± 3.2 DSS
same,drug sensitivity score,[7]; [18],18.7 ± 1.8 DSS
same,drug sensitivity score,[7]; [19],18.1 ± 1.6 DSS
same,drug sensitivity score,[7]; [21],16.8 ± 0.21 DSS
same,drug sensitivity score,[8]; [17],24.7 ± 1.2 DSS
same,drug sensitivity score,[8]; [19],18.3 ± 1.2 DSS
same,drug sensitivity score,[8]; [20],14.1 ± 1.2 DSS
same,drug sensitivity score,[8]; [21],15.2 ± 0.4 DSS
same,drug sensitivity score,[9]; [17],27.5 ± 1 DSS
same,drug sensitivity score,[9]; [18],24.1 ± 4.4 DSS
same,drug sensitivity score,[9]; [19],24.5 ± 0.1 DSS
same,drug sensitivity score,[9]; [20],23.7 ± 0.44 DSS
same,drug sensitivity score,[9]; [21],25 ± 0.83 DSS
same,drug sensitivity score,[10]; [17],25.2 ± 1.2 DSS
same,drug sensitivity score,[10]; [18],20.9 ± 3.1 DSS
same,drug sensitivity score,[10]; [19],23.8 ± 0.57 DSS
same,drug sensitivity score,[10]; [20],20.6 ± 0.78 DSS
same,drug sensitivity score,[10]; [21],23.7 ± 2.6 DSS
same,drug sensitivity score,[11]; [17],22.8 ± 0.99 DSS
same,drug sensitivity score,[11]; [18],15.4 ± 0.89 DSS
same,drug sensitivity score,[11]; [19],22.33 ± 0.15 DSS
same,drug sensitivity score,[11]; [20],15 ± 1.2 DSS
same,drug sensitivity score,[11]; [21],21.9 ± 0.46 DSS
same,drug sensitivity score,[12]; [17],27 ± 2.8 DSS
same,drug sensitivity score,[12]; [18],22.6 ± 1.6 DSS
same,drug sensitivity score,[12]; [19],25.5 ± 1.2 DSS
same,drug sensitivity score,[12]; [20],20.4 ± 1.8 DSS
same,drug sensitivity score,[12]; [21],25 ± 1.6 DSS
same,maximal % inhibition of viability,[13]; [17],91.2 ± 0.27%
same,maximal % inhibition of viability,[13]; [18],89.6 ± 3.3%
same,maximal % inhibition of viability,[13]; [19],90.7 ± 1.4%
same,maximal % inhibition of viability,[13]; [20],90 ± 1.3%
same,maximal % inhibition of viability,[13]; [21],87.9 ± 1.4%
same,maximal % inhibition of viability,[14]; [17],52.5 ± 1.9%
same,maximal % inhibition of viability,[14]; [18],58.5 ± 5.7%
same,maximal % inhibition of viability,[14]; [19],54.8 ± 4.2%
same,maximal % inhibition of viability,[14]; [20],62.1 ± 5.8%
same,maximal % inhibition of viability,[14]; [21],56 ± 3.9%
same,maximal % inhibition of viability,[15]; [17],79.7 ± 2.2%
same,maximal % inhibition of viability,[15]; [18],64.2 ± 3.3%
same,maximal % inhibition of viability,[15]; [19],81.2 ± 0.87%
same,maximal % inhibition of viability,[15]; [20],69.7 ± 2.8%
same,maximal % inhibition of viability,[15]; [21],81.53 ± 0.67%
same,maximal % inhibition of viability,[16]; [17],95.2 ± 1.4%
same,maximal % inhibition of viability,[16]; [18],89.2 ± 1.7%
same,maximal % inhibition of viability,[16]; [19],92 ± 1.5%
same,maximal % inhibition of viability,[16]; [20],85.8 ± 0.99%
same,maximal % inhibition of viability,[16]; [21],91.6 ± 0.95%
